In the first series the target is T1, CCR2 receptor (Homo sapiens, UniProt P41597).
T1 construct: host or cells: THP-1 human monocytic cell line
T1 sequence (P41597 1-360 isoform P41597-2): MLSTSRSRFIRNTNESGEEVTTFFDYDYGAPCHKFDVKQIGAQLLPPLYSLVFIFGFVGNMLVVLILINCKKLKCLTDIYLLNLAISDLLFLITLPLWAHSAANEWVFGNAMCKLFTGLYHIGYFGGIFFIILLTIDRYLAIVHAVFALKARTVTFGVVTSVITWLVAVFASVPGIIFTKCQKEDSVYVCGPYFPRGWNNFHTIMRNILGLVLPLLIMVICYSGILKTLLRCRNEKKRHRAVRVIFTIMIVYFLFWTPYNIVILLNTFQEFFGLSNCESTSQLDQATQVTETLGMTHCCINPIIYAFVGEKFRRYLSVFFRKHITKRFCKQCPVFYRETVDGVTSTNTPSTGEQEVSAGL
In words: Inhibition of MCP-1 induced Ca-flux in human THP-1 cells. The class given is cell-based. As to conditions: inhibition of specific MCP-1 (10^-7 M hMCP-1) induced Ca2+ flux in human THP-1 cells; pIC50 = -log IC50 (molar). Here is the method:
C. Pharmacological Example Inhibition of MCP-1 Induced Ca-flux in Human THP-1 Cells
MCP-1 binding to the CCR2 receptor induces a rapid and transient intracellular release of Ca^2+ (secondary messenger) in several cell lines (Charo et al, PNAS 1994). Free Ca^2+ levels can be measured using a Ca^2+ sensitive dye. When the CCR2 receptor is blocked with a CCR2 receptor antagonist, the MCP-1 induced release of Ca^2+ is inhibited.
Human THP-1 cells (monocytic cell line, ATCC TIB-202) were cultured in RPMI 1640 medium supplemented with 10% fetal calf serum (FCS), 1% L-Glutamine, penicillin (50 U/ml) and streptomycin (50 μg/ml) (all GIBCO BRL, Gent). After centrifugation, cells were loaded for 30 minutes with the Ca^2+ sensitive fluorescent dye Fluo-3 AM (Molecular Probes, Leiden, Netherlands) (2 million cells/ml in RPMI medium containing 4 μM Fluo-3 AM, 20 mM HEPES, 0.1% Bovine Serum Albumin (BSA) and 5 mM probenecid). Excess dye was removed by 3-fold washing with buffer (5 mM HEPES, 140 mM NaCl, 1 mM MgCl2, 5 mM KCl, 10 mM glucose, 2.5 mM probenecid, 1.25 mM CaCl2, 0.1% BSA; all further incubations were done in this buffer). Cells were plated at a density of 150 000 cells/well in dark-wall 96-well plates (Costar, Cambridge, Mass.) and sedimented by centrifugation (1 minute). The cells were pre-incubated for 20 minutes with test compound. Then, 10^−7 M hMCP-1 (Bachem, Bubendorf, Switserland) was added. Changes in intracellular free Ca^2+ concentration were measured using the Fluorescent Imaging Plate Reader (FLIPR, Molecular Devices, Munchen, Germany). Fluorescence was recorded every second from 10 seconds before the addition of the MCP-1 till 2 minutes after the addition (first minute: 60 records with 1 second intervals, second minute 20 records with 3 second intervals).
The maximal fluorescence obtained during this time frame was used for further calculations.
Table 4 reports pIC50 values obtained in the above-described test for compounds of formula (I). pIC50 defines −log IC50 wherein IC50 is the molar concentration of the test compound which inhibits 50% of specific MCP-1 induced Ca^2+ flux.
On to `CCC(c1ccc(Cl)c(Cl)c1)n1c(S)nc(C(=O)OC(C)(C)C)c1C#N` (stereo not drawn) [Compound 78], for which half-maximal inhibition (IC50) required 813 nM. Still for that read-out and setting: in the case of `CCC(c1ccc(Cl)c(Cl)c1)n1c(C#N)c(C(=O)NC)[nH]c1=S` (stereo not drawn) [Compound 70] it was 257 nM; in that of `CCC(c1ccc(Cl)c(Cl)c1)n1c(C(=O)NN)c[nH]c1=S` (stereo not drawn) [Compound 95], 245 nM; in that of `CCC(c1ccc(Cl)c(Cl)c1)n1c(S)nc(C(N)=O)c1C(N)=O` (stereo not drawn) [Compound 20], 56.9 nM. Still for that read-out and setting: in the case of `CCCC(c1cccc(Cl)c1)n1c(C(=O)OC)c[nH]c1=S` (stereo not drawn) [Compound 24] it was 891 nM. The same measure, in the same setting: in the case of `CCC(c1ccc(Cl)c(Cl)c1)n1cc(C(=O)OC)nc1S` (stereo not drawn) [Compound 14] it was 355 nM. Take `CCC(c1ccc(Cl)c(Cl)c1)n1c(C(=O)OC(C)C)cnc1S` (stereo not drawn) [Compound 33]: inhibition was half-maximal at 263 nM (IC50). Same read-out and setting: the result for `CCC(c1ccc(Cl)c(Cl)c1)n1c(S)nc(C(=O)NC)c1C(=O)OC` (stereo not drawn) [Compound 87] reads 33.1 nM; that for `CCC(c1ccc(Cl)c(Cl)c1)n1c(C(=O)OC)c(C)[nH]c1=S` (stereo not drawn) [Compound 6], 263 nM. Same read-out and setting: the result for `CCC(c1cc(F)c(F)c(F)c1)n1c(C(N)=O)c[nH]c1=S` (stereo not drawn) [Compound 143] reads 166 nM; that for `CC(c1ccc(Cl)c(Cl)c1)n1c(C(N)=O)c[nH]c1=S` (stereo not drawn) [Compound 54], 1100 nM; that for `CCC(c1ccc(Cl)c(Cl)c1)n1c(C(C)=O)c[nH]c1=S` (stereo not drawn) [Compound 81], 132 nM. Same read-out and setting: in the case of `CCC(c1ccc(Br)c(Br)c1)n1c(C(=O)OC)cnc1S` (stereo not drawn) [Compound 76] it was 257 nM; in that of `CCOC(=O)c1cnc(S)n1C(CC)c1ccc(F)c(C(F)(F)F)c1` (stereo not drawn) [Compound 12], 347 nM. Consider `CCC(c1ccc(Cl)c(Cl)c1)n1c(C(N)=O)cnc1S` (stereo not drawn) [Compound 8], for which the IC50 was 35 nM.

In turn, `CCC(c1ccc(F)c(C(F)(F)F)c1)n1c(C(N)=O)cnc1S` (stereo not drawn) [Compound 10] gave an IC50 of 204 nM. The same measure, in the same setting: the result for `CCC(c1ccc(F)c(C(F)(F)F)c1)n1c(C(=O)OC)cnc1S` (stereo not drawn) [Compound 1] reads 933 nM; that for `CCC(c1ccc(Cl)c(Cl)c1)n1c(S)nc(C(N)=O)c1C#N` (stereo not drawn) [Compound 19], 120 nM; that for `CCC(c1ccc(C)c(C)c1)n1c(C(=O)OC)c(C(=O)OC)[nH]c1=S` (stereo not drawn) [Compound 99], 343 nM. Same read-out and setting: the result for `CCC(c1ccc(Cl)c(Cl)c1)n1c(S)nc(C(=O)OC)c1C(=O)OC` (stereo not drawn) [Compound 37] reads 9.68 nM; that for `CCC(c1ccc(F)c(F)c1)n1c(C(=O)NC)cnc1S` (stereo not drawn) [Compound 36], 2240 nM; that for `CCC(c1ccc(Cl)c(Cl)c1)n1c(C(=O)OC)c(C(=O)NNC(C)=O)[nH]c1=S` (stereo not drawn) [Compound 96], 186 nM.

`CCOC(=O)c1c(C)[nH]c(=S)n1C(CC)c1ccc(Cl)c(Cl)c1` (stereo not drawn) [Compound 75] gave an IC50 of 263 nM. The same measure, in the same setting: in the case of `COC(=O)c1[nH]c(=S)n(C(c2ccc(Cl)c(Cl)c2)C2CC2)c1C(=O)OC` (stereo not drawn) [Compound 4] it was 27.9 nM; in that of `COC(=O)c1[nH]c(=S)n(Cc2ccc(Cl)c(Cl)c2)c1C(=O)OC` [Compound 47], 35.5 nM. Still for that read-out and setting: the result for `CCC(c1ccc(Cl)c(Cl)c1)n1c(C(=O)NCCO)c(COC)[nH]c1=S` (stereo not drawn) [Compound 115] reads 1200 nM. The same measure, in the same setting: in the case of `CCCC(c1ccc(Cl)c(Cl)c1)n1c(C(=O)NC)c(C(=O)NC)[nH]c1=S` (stereo not drawn) [Compound 69] it was 394 nM; in that of `CCCC(c1ccc(Cl)cc1)n1c(C(=O)OC)c[nH]c1=S` (stereo not drawn) [Compound 25], 3550 nM; in that of `COC(=O)c1cnc(S)n1C(C)c1ccc(Cl)c(Cl)c1` (stereo not drawn) [Compound 32], 257 nM. Take `CCC(c1ccc(Cl)c(Cl)c1)n1c(C(=O)OC)c(C(=O)N2CCCCC2)[nH]c1=S` (stereo not drawn) [Compound 108]: half-maximal inhibition (IC50) was put at 112 nM.

For `CCC(c1ccc(Cl)c(Cl)c1)n1c(S)nc(CO)c1C(=O)OC` (stereo not drawn) [Compound 85], inhibition was half-maximal at 153 nM (IC50). Same read-out and setting: in the case of `COCC(c1ccc(Cl)c(Cl)c1)n1c(C(N)=O)c[nH]c1=S` (stereo not drawn) [Compound 104] it was 85.7 nM; in that of `CCC(c1cc(F)cc(F)c1)n1c(C(=O)OC)c(C(=O)OC)[nH]c1=S` (stereo not drawn) [Compound 124], 64.6 nM.

`CCC(c1ccc(Br)c(Br)c1)n1c(C(N)=O)c[nH]c1=S` (stereo not drawn) [Compound 138] showed an IC50 of 176 nM. In the case of `CCC(c1ccc(F)c(C(F)(F)F)c1)n1c(C(=O)OCC(=O)N(CC)CC)c[nH]c1=S` (stereo not drawn) [Compound 62], the midpoint of inhibition, the IC50, lay at 1020 nM. Same read-out and setting: the result for `CCC(c1ccc(F)c(C(F)(F)F)c1)n1c(C(=O)OCCO)cnc1S` (stereo not drawn) [Compound 61] reads 229 nM; that for `CCC(c1ccc(C(F)(F)F)c(F)c1)n1c(S)nc(C(=O)OC)c1C(=O)OC` (stereo not drawn) [Compound 48], 89.1 nM. The same measure, in the same setting: the result for `CCC(c1ccc(Cl)c(Cl)c1)n1c(S)nc(C(=O)O)c1C#N` (stereo not drawn) [Compound 88] reads 174 nM.

System in a further series: not given
Experiment: not given
Conditions: not given
In the case of `CCC(c1ccc(Cl)c(Cl)c1)n1c(S)nc(C(=O)OC(C)(C)C)c1C#N` (stereo not drawn) [Compound 78], the melting point was in the range of 172.7 to 175.2 °C.

What is called IC50 is the concentration that inhibits the measured activity by half. The low end stands for inhibition by little substance, the high end for a need for much substance. What is called melting point is the temperature, or range, at which the solid turns liquid.

Source of the values: US7511068B2, “Mercaptoimidazoles as CCR2 receptor antagonists” (Janssen Pharmaceutica, N.V., priority 2003, dated 2009).
